Assay results reported in article PMC4678293, “Identification of a lead like inhibitor of the hepatitis C virus non-structural NS2 autoprotease” (Antiviral Research, 2015).
Where “and” joins values, the source holds several entries; their conditions need not be identical. Equal values may be shown once. Entries after “also recorded” stand apart in the source; their conditions may differ. Read-outs that look alike come from different tables or passages of the source.

Key:
[1] = target: T1, NS2 autoprotease (NS2-NS3-FLAG, JFH-1 isolate, genotype 2a) (Hepatitis C virus genotype 2a, UniProt Q99IB8); assay: in vitro NS2 autoprotease assay: recombinant NS2-NS3-FLAG proteolysis, NS3-FLAG product quantified by western blot; format: biochemical; conditions: 16 h
T1 construct: made in house
T1 sequence (Q99IB8 908-1210): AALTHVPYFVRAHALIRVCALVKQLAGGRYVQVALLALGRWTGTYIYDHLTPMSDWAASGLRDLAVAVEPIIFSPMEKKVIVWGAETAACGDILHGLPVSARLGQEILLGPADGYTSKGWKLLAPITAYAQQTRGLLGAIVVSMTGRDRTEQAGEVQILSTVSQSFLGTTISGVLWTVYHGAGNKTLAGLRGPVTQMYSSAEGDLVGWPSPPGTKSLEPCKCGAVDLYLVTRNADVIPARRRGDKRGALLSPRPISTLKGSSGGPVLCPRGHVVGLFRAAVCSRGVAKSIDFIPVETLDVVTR
Procedure: NS2-NS3-FLAG (JFH-1 isolate, genotype 2a) was purified, and proteolysis reactions were performed as previously described ([Shaw et al., 2015]). Compounds were added to reactions prior to addition of NS2-NS3-FLAG by dilution from DMSO stocks (final DMSO 0.75%). Reactions were incubated at room temperature for 16 h, terminated by addition of Laemmli buffer and the NS3-FLAG proteolysis product quantified by western blot using M2 anti-FLAG monoclonal antibody (Sigma Aldrich) and IRDye 680RD Donkey anti-Mouse (LI-COR Biosciences) on an Odyssey imager (LI-COR). NS3-FLAG was normalised to DMSO control and a non-linear regression fitted with Prism 6 (GraphPad) to determine 50% effective concentration (EC50).
Firstly, compounds were tested for the ability to block production of a substrate product of the NS2 autoprotease in an in vitro assay. This assay, using a recombinant NS2-NS3-FLAG precursor purified under denaturing conditions, measured NS2 autoprotease activity using quantitative western blot to monitor a proteolysis product (NS3-FLAG) ([Foster et al., 2010], [Shaw et al., 2015], [Tedbury and Harris, 2007]).

[2] = system: Jc1-NLuc (genotype 2a chimeric Jc1, infectious HCV); assay: HCVcc assay: Jc1-NLuc RNA electroporated into Huh7.5 cells, NanoLuc activity; format: cell-based, Hepatitis C virus
Procedure: (§1) For HCVcc experiments, 5 μg of Jc1-NLuc ([Amako et al., 2015]) transcript was electroporated into Huh7.5 cells and treated with compound as described in Section 2.5. Cytotoxicity or NanoLuc (NLuc) activity was measured at 48 h incubation with compound. Cells were lysed as in Section 2.4. Following the addition of 50 μl/well Nano-Glo Luciferase Assay Substrate (Promega) light emission was recorded using a BMG Labtech Fluostar plate reader and data analysed as in Section 2.5.

Huh7.5 cells [3] = assay: cytotoxicity at 25 μM in Huh7.5 cells, MTT or ATPlite assay; format: cell-based; conditions: 48 h
Procedure: (§2) For cytotoxicity assay, media was removed and cells were incubated in 1 mM thiazolyl blue tetrazolium bromide (MTT) for >2 h. MTT crystals were resuspended in 100 μl DMSO and absorbance at 570 nm quantified using an infinite F50 plate reader (Tecan). Alternatively, cytotoxicity was analysed using the ATPLite kit following the manufacturer's instructions, with light emission quantified using a BMG Labtech Fluostar plate reader.

[4] = cell viability by ATPLite in SGR-feo-NS2-5B(JFH-1) harbouring Huh7.5 cells; format: cell-based; conditions: human, Huh7.5 cells harbouring SGR-feo-NS2-5B(JFH-1) replicon
Procedure: as §2
(§3) Firefly luciferase was measured as in Section 2.4. Data was normalised to DMSO controls and EC50/CC50 determined using Prism 6 (GraphPad).

[5] = system: SGR-feo-NS3-5B(Con1) sub-genomic replicon; assay: luciferase assay in Huh7.5 cells stably harbouring SGR-feo-NS3-5B(Con1), independent of NS2; format: cell-based, Hepatitis C virus; conditions: 10 μM, Huh7.5 stable cells
Procedure: (§4) Selection and maintenance of Huh7.5 cells stably harbouring SGR-feo-NS3-5B ([Wyles et al., 2009], [Wyles et al., 2007]) or SGR-feo-NS2-5B derived from JFH-1 (genotype 2a) and Con1 (genotype 1b) has previously been reported ([Shaw et al., 2015]). Cells were maintained in Dulbecco's modified Eagle's medium (DMEM) supplemented with 10% FBS, 100 IU penicillin ml^−1, 100 μg streptomycin ml^−1, 1% non-essential amino acids and 300 μg/ml G418 in a humidified incubator at 37 °C in 5% CO2. For screening, 2 × 10^4 cells/well were seeded in a 96-well plate in the absence of G418 and compounds were added to 10 μM final concentration by dilution from DMSO stocks. At 72 h, cells were washed in PBS and lysed in 30 μl/well Passive Lysis Buffer (PLB: Promega). Luciferase activity was quantified by automated addition of 40 μl LarI reagent (Promega) and light emission recorded over 6 s using a BMG Labtech Fluostar plate reader. Statistical significance was determined using the Student's t test.
(§5) Additionally, compounds were tested for the ability to specifically perturb NS2-dependent HCV genome replication in a cell-based assay. Compounds were tested against cells stably harbouring a HCV sub-genomic replicon (SGR) comprising either NS2-5B or NS3-5B with a firefly luciferase-neomycin phosphotransferase reporter ([Shaw et al., 2015], [Wyles et al., 2009], [Wyles et al., 2007]). […]

Huh7.5 cells [6] = assay: cell viability by MTT in Huh7.5 cells electroporated with SGR-luc-NS2-5B(JFH-1); format: cell-based; conditions: for CC50: MTT, Huh7.5, 48 h.p.e., single experiments in duplicate, read-out: Cell viability CC50, individual experiment
Procedure: as §2, §3

[7] = as above; format: cell-based; conditions: human, Huh7.5 cells electroporated with SGR-luc-NS2-5B(JFH-1); for CC50 at 48 h: MTT, Huh7.5, 48 h.p.e., Fig. 2D, read-out: Cell viability CC50, across experimental repeats
Procedure: as §2, §3

NS5A = assay: western blot for NS5A in lysates of SGR-luc-NS2-5B(JFH-1) electroporated Huh7.5 cells; format: cell-based, Hepatitis C virus; conditions: 52 h.p.e.
Procedure: 2 × 10^6 cells were seeded in a 10 cm dish and incubated as indicated. Cells were washed in PBS and lysed in 100 μl PLB. Clarified lysates were analysed by 15% SDS-PAGE and western blot. Anti-GAPDH (Abcam) (1:20,000) or anti-NS5A ([Macdonald et al., 2003]) (1:5000) were followed by IRDye 680RD Donkey anti-Mouse or IRDye 800CW Donkey anti-Rabbit (LI-COR BioSciences) (1:10,000) respectively. Imaging was performed using an Odyssey Imager (LI-COR).

[8] = system: SGR-feo-NS2-5B(Con1) sub-genomic replicon, genotype 1b; assay: luciferase assay in Huh7.5 cells stably harbouring SGR-feo-NS2-5B(Con1); format: cell-based, Hepatitis C virus; conditions: 10 μM, Huh7.5 stable cells, p = 0.0006
Procedure: as §4, §5

[9] = system: SGR-feo-NS2-5B(JFH-1) sub-genomic replicon; assay: luciferase assay in Huh7.5 cells stably harbouring SGR-feo-NS2-5B(JFH-1); format: cell-based, Hepatitis C virus; conditions: Huh7.5, 48 h
Procedure: as §4, §3
Additionally, compounds were tested for the ability to specifically perturb NS2-dependent HCV genome replication in a cell-based assay. […]

[10] = system: SGR-luc-NS2-5B(JFH-1) sub-genomic replicon; assay: transient replication assay: SGR-luc-NS2-5B(JFH-1) RNA electroporated into Huh7.5 cells, luciferase; format: cell-based, Hepatitis C virus
Procedure: For transient SGR experiments, in vitro transcripts (2 μg) of firefly luciferase-containing SGR were electroporated into 4 × 10^6 Huh7.5 cells ([Blight et al., 2002]) or Huh7 cells at 950 μF and 270 V. 2 × 10^4 cells/well were seeded in a 96 well plate. At 4 h post electroporation (h.p.e.) media was replaced with media containing compounds.
as §3

Huh7.5 cells [11] = assay: cell viability by MTT in Huh7.5 cells electroporated with Jc1-NLuc; format: cell-based; conditions: Jc1-NLuc electroporated Huh7.5, 48 h.p.e.; read-out: Cell viability, MTT CC50, individual experiment
Procedure: as §2, §1

[12] = as above; format: cell-based; conditions: human, Jc1-NLuc electroporated Huh7.5, 48 h.p.e.
Procedure: as §2, §1

[13] = 10-point dose response, in vitro proteolysis, * mean ± SD of three experimental repeats, read-out: JFH1 NS2-3 EC50
[14] = Hepatitis C virus, Huh7.5, transient SGR-luc-NS2-5B(JFH-1), Huh7.5, 4-48 h.p.e., Fig. 2D, read-out: NS2-5B SGR EC50, mean ± SD across experimental repeats
[15] = transient SGR-luc-NS2-5B(JFH-1), Huh7.5, 48 h.p.e., single experiments in duplicate, read-out: NS2-5B SGR EC50, individual experiment

With `CC1(C(=O)N2CCC3(C=Cc4ccccc43)CC2)CCCCC1` [160–1, 1-[(1-Methylcyclohexyl)carbonyl]-spiro[indene-1,4’-piperidine]] the EC50 [1, 13] was 43 ± 0.5 µM.

Molecule `O=C(C1CCCCC1)N1CCC2(C=Cc3ccccc32)CC1` [160–2, 1’-[(Cyclohexyl)carbonyl]-spiro[indene-1,4’-piperidine]] has a melting point of 134 to 135 °C and an EC50 [1, 13] of 68.4 ± 5.6 µM.

For `CC1(C(=O)N2CCC3(CC2)c2ccccc2[C@@H](N)[C@@H]3O)CCCCC1` [Compound 160, (2R, 3R)-3-amino-1′-[(1-methylcyclohexyl)carbonyl]-2,3,dihydrospiro[indene-1,4′-piperidine]-2-ol], the EC50 ([2]; Hepatitis C virus, Huh7.5, read-out: Jc1-NLuc EC50, mean, Huh7.5, treated 4 to 48 h.p.e., mean ± SD of three experiments) was 17.3 ± 8.1 µM, the EC50 ([2]; read-out: Jc1-NLuc EC50, individual experiment, Huh7.5, 48 h.p.e., three biological replicates) was 24.4 µM and 18.9 µM and 8.54 µM and the “cytotoxicity at 25 μM” value (Huh7.5 cells [3]) was “no observed cytotoxicity”. For the same molecule, the CC50 at 48 h [4] was over 100 µM, the “luciferase activity relative to DMSO control, SGR-feo-NS3-5B(Con1)” value [5] was “no effect; also recorded: without affecting luciferase activity” and the “concentration at which modest cytotoxic effects were observed” value (Huh7.5 cells [6]) was at least 95 µM. The CC50 (Huh7.5 cells [6]) was over 100 µM, the viability at 300 µM ([7]; 300 μM, read-out: cell viability at maximal attainable concentration) was 40% and the CC50 at 48 h [7] was over 100 µM. The “NS5A relative to DMSO control, western blot” value (NS5A; 160 at 25 μM) was “comparable reduction in NS5A”, the “luciferase activity relative to DMSO control, SGR-feo-NS2-5B(Con1)” value [8] was “significantly reduced; also recorded: reduces luciferase activity” and the EC50 ([9]; Hepatitis C virus, read-out: ff Luc EC50, SGR-feo-NS2-5B(JFH-1) stable cells, Huh7.5, 48 h, one representative experiment) was 43.4 µM. For the same molecule, the EC50 ([9]; read-out: ff Luc EC50, SGR-feo-NS2-5B(JFH-1) stable cells, one representative experiment) was 43.4 µM, the EC50 [1, 13] was 44.6 ± 6.2 µM and the EC50 ([1]; Fig. 1B dose response, read-out: EC50, reduction of NS3-FLAG product in the in vitro NS2 autoprotease assay) was 39 µM. The “luciferase activity time course relative to DMSO control” value ([10]; 160 at 25 μM, added 4 h.p.e., read every 4 h for 48 h) was “reduction in luciferase activity and a lag in detectable luciferase activity”, the selectivity index ([10]; CC50/EC50, transient SGR, no accurate CC50) was over 5 and the EC50 [10, 14] was 12 ± 6.4 µM. For the same molecule, the EC50 [10, 15] was 20.2 µM and 13.6 µM and 5.65 µM and 8.46 µM, the CC50 (Huh7.5 cells [11]) was 81.2 µM and 155 µM and the CC50 at 48 h ([12]; mean ± SD of three experiments, read-out: Cell viability, MTT CC50, mean) was 110 ± 40 µM. The CC50 at 48 h ([12]; read-out: Cell viability, MTT CC50, individual experiment) was 93 µM.

In the case of `CCC[C@H](NC(=O)[C@@H]1[C@H]2CCC[C@H]2CN1C(=O)[C@@H](NC(=O)[C@@H](NC(=O)c1cnccn1)C1CCCCC1)C(C)(C)C)C(=O)C(=O)NC1CC1` [Telaprevir, reference compound], the CC50 (Huh7.5 cells [6]) is reported as over 31.6 µM, the CC50 at 48 h [7] is reported as over 31.6 µM and the “NS5A relative to DMSO control, western blot” value (NS5A; Telaprevir at 100 nM) is reported as “comparable reduction in NS5A”. The EC50 ([10]; Hepatitis C virus, Huh7.5, 48 h, transient SGR-luc-NS2-5B(JFH-1), Huh7.5, 48 h.p.e., single experiments in duplicate, read-out: NS2-5B SGR EC50, individual experiment) was 0.206 µM, the EC50 [10, 14] was 0.176 ± 0.023 µM and the “luciferase activity time course” value ([10]; Telaprevir at 100 nM, compared with 160 at 25 μM) was “comparable profile”. The EC50 [10, 15] was 0.146 µM.
